Data reported in publication PMC9574934, “Targeting the Phosphatidylserine-Immune Checkpoint with a Small-Molecule Maytansinoid Conjugate” (Journal of Medicinal Chemistry, 2022).

Key:
[1] = tested on: PS-coated liposomes (DOPC/ DOPS (3:1,v/v)); test: Biacore SPR binding assay with PS-containing liposomes; details: for dissociation koff: zinc-coordinated, DOPC/DOPS (3:1) liposomes, 25 °C, DOPC reference
Procedure: Phospholipids, 1,2-dioleoyl-sn-glycero-3-phosphocholine (DOPC), and 1,2-dioleoyl-sn-glycero-3-[phospho-L-serine] (DOPS) were obtained from Avanti Polar Lipids (Alabaster, AL) in chloroform solutions. These stock solutions were combined to the indicated ratios. To a round-bottom flask, a 0.4 mL aliquot of lipid solution at concentration of 10 mg/mL was added and evaporated under a N2 gas stream to furnish a thin lipid film. Rehydration of lipid films was carried out in PBS buffer for at least 1 h at room temperature. Resulting suspensions were extruded through a 100 nm polycarbonate filter using an Avanti MiniExtruder following the manufacturer’s instructions. Zeta potential (ZP) and liposomes’ size distributions were recorded by dynamic light scattering (DLS) and microelectrophoresis using a Zetasizer Nano ZS instrument. Then, using a Biacore T200 biosensor equipped with an L1 sensor chip (GE Healthcare), binding kinetics between the conjugates and liposome were recorded at 25 °C. Preconditioning of new sensor chips was performed with running buffer (5% DMSO in phosphate-buffered saline (PBS) with final pH 7.4) and two consecutive 30 s pulses of 2:3 v/v 50 mM HCl/isopropanol at a flow rate of 30 μL/min. A fresh liposome capture plate was prepared for each binding cycle. In PBS buffer, liposomes were diluted to 0.5–1 mM and captured to saturation (30–150 s) across isolated flow cells at 2–5 μL/min. In a single injection, conjugates were first diluted with running buffer and injected over lipid surfaces. At flow rate of 30 μL/min, association and dissociation phases were examined for 60s. At the end of each binding cycle, the surface was regenerated by injecting 2:3 v/v 50 mM HCl/isopropanol and equilibrated with running buffer before the next injection of the test compound. […]
Figure S3. […] Zinc-coordinated dipicolylamine 24 and modified analog 11 were analyzed across a two-fold concentration series descending from 31.3 μM. The association was monitored for 1 min, and the dissociation time was 1 min. […]

[2] = tested on: MIA PaCa-2 human pancreatic cells; test: MTS cell viability assay, MIA PaCa-2; type: cell-based; details: 72 h incubation, read-out: MIA PaCa2 IC50
Procedure: (§1) The MTS assay was performed to examine cell viability.

[3] = tested on: HCC 1806 human triple-negative breast cancer cell; test: MTS cell viability assay, HCC1806; type: cell-based; details: 72 h incubation
Procedure: as §1

[4] = tested on: Detroit 551 normal skin fibroblast; test: MTS cell viability assay, Detroit 551; type: cell-based; details: Homo sapiens, 72 h incubation
Procedure: as §1

[5] = Plasma incubation and tumor homogenate cleavage of conjugate; type: in vitro ADME; details: glutathione transferase inhibitor added to tumor homogenate
Excerpt: Figure 3 In vivo targeting ability, plasma stability, and in vivo biodistribution of modified zinc dipicolylamine conjugates in subcutaneous HCC1806 tumor xenografts. […] (B) In vivo detection of PS-expression in the HCC1806 tumor xenograft model. Representative IVIS images of new Zn11-794 fluorescence probe in mice.

| SMILES | dissociation koff [1] | IC50 [2] | IC50 [3] | IC50 [4] | also measured |
| --- | --- | --- | --- | --- | --- |
| CCCCCC(=O)Nc1cccc(CN(Cc2cc(CN(Cc3ccccn3)Cc3cccc(NC(=O)CCCCC)n3)cc(OCCCCN)c2)Cc2ccccn2)n1 [Compound 11] | 0.00358 s^–1 | – | – | – | improvement of dissociation koff over compound 24 ([1]; PS-containing liposomes): 3 fold |
| COc1cc2cc(c1Cl)N(C)C(=O)C[C@H](OC(=O)[C@H](C)N(C)C(=O)CCS)[C@]1(C)O[C@H]1[C@H](C)[C@@H]1C[C@@](O)(NC(=O)O1)[C@H](OC)/C=C/C=C(\C)C2 [Compound 14, DM1] | – | 74 ± 27 nM | 8 ± 3 nM | > 20000 nM | – |
| COc1cc2cc(c1Cl)N(C)C(=O)C[C@H](OC(=O)[C@H](C)N(C)C(=O)CCC(C)(C)S)[C@]1(C)O[C@H]1[C@H](C)[C@@H]1C[C@@](O)(NC(=O)O1)[C@H](OC)/C=C/C=C(\C)C2 [Compound 16, DM4] | – | 30 ± 3 nM | 4 nM | > 20000 nM | – |
| NCCCCOc1cc(CN(Cc2ccccn2)Cc2ccccn2)cc(CN(Cc2ccccn2)Cc2ccccn2)c1 [Compound 24, reference compound] | 0.0113 s^–1 | – | – | – | – |
| C=C(CC)C(=O)c1ccc(OCC(=O)O)c(Cl)c1Cl [ethacrynic acid, reference compound] | – | – | – | – | effect on abundance of intact conjugate 40a in tumor homogenate [5]: significantly rescued |
